Reference: patent US12252524B2, “GIP/GLP1 co-agonist compounds” (Eli Lilly and Company, priority 2018, dated 2025)
Where two headings read alike, the source gives them in different places. Numbered stars: 1 amine (or outer) side, 2 acyl side, 3 side chain; on linkers, the order of the positions; unused ones are H or OH. Square brackets hold non-standard residues; d marks the D form. Side chains are listed from the residue outwards. Peptide text beside a SMILES is read from it. * marks the point of attachment. C20 diacid = O=C(O)CCCCCCCCCCCCCCCCCCC(=O)*; C18 diacid = O=C(O)CCCCCCCCCCCCCCCCC(=O)*; γGlu = O=C(O)[C@H](CCC(=O)[*:2])N[*:1]; αMeF = C[C@](N)(Cc1ccccc1)C(=O)O; AEEA = NCCOCCOCC(=O)O; Aib = CC(C)(N)C(=O)O

Assays:
human Gcg receptor = target: T1, human Gcg receptor (Homo sapiens, UniProt P47871); assay: [125I]-Glucagon binding (SPA), human Gcg receptor
T1 construct: expressed in transfected cells; crude membranes
T1 sequence (P47871 26-477): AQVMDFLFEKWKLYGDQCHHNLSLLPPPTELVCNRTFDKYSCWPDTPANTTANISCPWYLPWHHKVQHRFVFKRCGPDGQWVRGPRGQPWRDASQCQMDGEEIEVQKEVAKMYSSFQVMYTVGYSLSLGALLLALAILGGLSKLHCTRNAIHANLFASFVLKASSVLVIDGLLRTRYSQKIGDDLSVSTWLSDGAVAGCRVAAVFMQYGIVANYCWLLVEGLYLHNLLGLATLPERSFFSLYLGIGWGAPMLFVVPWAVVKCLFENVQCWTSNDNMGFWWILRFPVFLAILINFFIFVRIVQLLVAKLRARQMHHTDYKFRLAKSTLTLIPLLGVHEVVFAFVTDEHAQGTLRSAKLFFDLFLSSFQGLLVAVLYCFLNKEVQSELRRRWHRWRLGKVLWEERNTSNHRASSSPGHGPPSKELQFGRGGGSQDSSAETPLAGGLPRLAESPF
Summary of the method: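 Cell pellets were lysed in hypotonic Tris buffer, pH 7.5, homogenized, and spun at low then high speed to give crude membranes. Ki was derived from the fitted IC50.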

human GIP receptor = target: T2, human GIP receptor (Homo sapiens, UniProt P48546); assay: [125I]-GIP binding (SPA), human GIP receptor
T2 construct: expressed in transfected cells; crude membranes
T2 sequence (P48546 22-466): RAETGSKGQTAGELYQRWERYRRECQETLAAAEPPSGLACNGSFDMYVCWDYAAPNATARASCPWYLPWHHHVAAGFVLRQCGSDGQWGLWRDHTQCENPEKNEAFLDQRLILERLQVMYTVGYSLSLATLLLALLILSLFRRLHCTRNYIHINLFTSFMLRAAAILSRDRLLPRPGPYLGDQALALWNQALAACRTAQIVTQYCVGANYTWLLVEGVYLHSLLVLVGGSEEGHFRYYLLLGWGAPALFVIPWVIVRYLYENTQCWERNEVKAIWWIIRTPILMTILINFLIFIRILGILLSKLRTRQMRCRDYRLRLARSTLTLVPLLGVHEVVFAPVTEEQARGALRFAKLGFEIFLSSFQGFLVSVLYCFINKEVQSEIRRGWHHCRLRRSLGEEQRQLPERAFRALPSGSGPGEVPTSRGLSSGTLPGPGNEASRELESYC

[1] = target: human GLP-1 receptor (GLP-1R) (Homo sapiens, UniProt P43220); assay: cAMP pharmacological functional assay in presence of casein, hGLP-1R; type: cell-based
Sequence of human GLP-1 receptor (GLP-1R) (P43220 24-463): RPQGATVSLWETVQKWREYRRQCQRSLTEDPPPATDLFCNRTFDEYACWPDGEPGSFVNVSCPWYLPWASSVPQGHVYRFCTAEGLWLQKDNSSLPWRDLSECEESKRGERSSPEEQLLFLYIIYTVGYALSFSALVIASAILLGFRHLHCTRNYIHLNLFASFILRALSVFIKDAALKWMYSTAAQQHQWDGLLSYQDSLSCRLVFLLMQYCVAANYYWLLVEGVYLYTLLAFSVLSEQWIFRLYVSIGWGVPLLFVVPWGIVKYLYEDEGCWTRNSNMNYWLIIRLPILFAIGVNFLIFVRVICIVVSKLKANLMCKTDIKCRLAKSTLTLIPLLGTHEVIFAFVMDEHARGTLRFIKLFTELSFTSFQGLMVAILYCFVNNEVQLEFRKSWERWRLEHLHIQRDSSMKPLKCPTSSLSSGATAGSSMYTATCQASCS

[2] = target: T3, gastric inhibitory peptide receptor (GIPR) (Homo sapiens, UniProt P48546); assay: cAMP pharmacological functional assay in presence of casein, hGIPR; type: cell-based
T3 sequence (P48546 22-466): T2 sequence (P48546 22-466)

human GLP-1R [3] = target: T4, human GLP-1R (Homo sapiens, UniProt P43220); assay: [125I]-GLP-1 binding (SPA), human GLP-1 receptor; set-up: expressed in transfected cells; crude membranes
T4 sequence (P43220 24-463): as above
Summary of the method: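 Frozen cell pellets are lysed on ice in hypotonic Tris buffer, pH 7.5, homogenized, and centrifuged to a membrane pellet resuspended at about 1 to 3 mg/mL. Binding is then measured in HEPES-based buffer at pH 7.4, and curves are fitted to give IC50 and Ki.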

human GLP-1R [4] = target: T4, human GLP-1R; assay: GLP-1R CHO cell β-arrestin recruitment assay; type: cell-based; set-up: host or cells: CHO-K1 PathHunter cells, assay-ready frozen; settings: for hGLP1R B-Arrestin2 % Top: normalized to GLP-1 maximum control
Summary of the method: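 Peptide-induced β-arrestin-2 recruitment measured by enzyme-fragment complementation luminescence after 90 min at 37 °C plus 60 min detection at RT.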

[5] = read-out: hGLcgR Ki, nM (SEM, n)
[6] = read-out: hGIPR Ki, nM (SEM, n)
[7] = HEK293 cells expressing hGLP-1R, 0.1% Casein, geometric mean, read-out: hGLP1R cAMP Rel EC50 nM (SEM, n)
[8] = HEK293 cells expressing hGIPR, 0.1% Casein, geometric mean, read-out: hGIPR cAMP Rel EC50 nM (SEM, n)
[9] = read-out: hGLP1R Ki, (nM) (SEM, n)
[10] = CHO-K1 cells, PathHunter β-arrestin-2 recruitment, 0.1% casein, read-out: hGLP1R B-Arrestin2 Rel EC50 uM (SEM, n)

| Compound | Ki (human Gcg receptor; [5]) [nM] | Ki (human GIP receptor; [6]) [nM] | EC50 [1, 7] [nM] | EC50 [2, 8] [nM] | Ki (human GLP-1R [3]; [9]) [nM] | EC50 (human GLP-1R [4]; [10]) [µM] | hGLP1R B-Arrestin2 % Top (human GLP-1R [4]) [%] | Ki (human Gcg receptor) [nM] | Ki (human GIP receptor) [nM] | EC50 [1] [nM] | EC50 [2] [nM] | Ki (human GLP-1R [3]) [nM] | EC50 (human GLP-1R [4]) [µM] |
| --- | --- | --- | --- | --- | --- | --- | --- | --- | --- | --- | --- | --- | --- |
| CC[C@H](C)[C@H](NC(=O)[C@H](CC(C)C)NC(=O)[C@H](Cc1ccc(O)cc1)NC(=O)[C@H](CCC(=O)O)NC(=O)[C@@H](NC(=O)[C@H](Cc1ccccc1)NC(=O)[C@H](C)NC(=O)C(C)(C)NC(=O)[C@H](CCC(N)=O)NC(=O)[C@H](C)NC(=O)[C@H](CCCCNC(=O)COCCOCCNC(=O)COCCOCCNC(=O)CC[C@H](NC(=O)CCCCCCCCCCCCCCCCCCC(=O)O)C(=O)O)NC(=O)[C@H](CCCCN)NC(=O)[C@H](CC(=O)O)NC(=O)[C@H](CC(C)C)NC(=O)[C@H](CC(C)C)NC(=O)[C@@H](NC(=O)[C@H](CO)NC(=O)[C@H](Cc1ccc(O)cc1)NC(=O)[C@H](CC(=O)O)NC(=O)[C@H](CO)NC(=O)[C@@H](NC(=O)[C@H](Cc1ccccc1)NC(=O)[C@@H](NC(=O)CNC(=O)[C@H](CCC(=O)O)NC(=O)C(C)(C)NC(=O)[C@@H](N)Cc1ccc(O)cc1)[C@@H](C)O)[C@@H](C)O)[C@@H](C)CC)[C@@H](C)CC)C(=O)N[C@@H](C)C(=O)NCC(=O)NCC(=O)N1CCC[C@H]1C(=O)N[C@@H](CO)C(=O)N[C@@H](CO)C(=O)NCC(=O)N[C@@H](C)C(=O)N1CCC[C@H]1C(=O)N1CCC[C@H]1C(=O)N1CCC[C@H]1C(=O)N[C@@H](CO)C(N)=O [Example 288] (H-Y[Aib]EGTFTSDYSILLDKK([AEEA-AEEA-γGlu-C20 diacid])AQ[Aib]AFIEYLIAGGPSSGAPPPS-NH2; N-terminus assumed) | 345 | 0.058 | 0.172 | 0.0732 | 1.6 | 0.00674 | 21.3 |  |  |  |  |  |  |
| CC[C@H](C)[C@H](NC(=O)[C@H](CC(C)C)NC(=O)[C@](C)(Cc1ccc(O)cc1)NC(=O)[C@@H](CCC(=O)O)NC(=O)[C@@H](NC(=O)[C@H](Cc1ccccc1)NC(=O)[C@H](CCC(=O)O)NC(=O)C(C)(C)NC(=O)[C@H](CCC(N)=O)NC(=O)[C@H](C)NC(=O)[C@H](CCCCNC(=O)COCCOCCNC(=O)COCCOCCNC(=O)CC[C@H](NC(=O)CCCCCCCCCCCCCCCCC(=O)O)C(=O)O)NC(=O)[C@H](CCCN)NC(=O)[C@H](CC(=O)O)NC(=O)[C@H](CC(C)C)NC(=O)[C@](C)(CC(C)C)NC(=O)[C@@H](NC(=O)[C@H](CO)NC(=O)[C@H](Cc1ccncc1)NC(=O)[C@H](CC(=O)O)NC(=O)[C@H](CO)NC(=O)[C@@H](NC(=O)[C@](C)(Cc1ccccc1F)NC(=O)[C@@H](NC(=O)CNC(=O)[C@H](CCC(=O)O)NC(=O)C(C)(C)NC(=O)[C@@H](N)Cc1ccc(O)cc1)[C@@H](C)O)[C@@H](C)O)[C@@H](C)CC)[C@@H](C)CC)C(=O)N[C@@H](CCC(=O)O)C(=O)NCC(=O)NCC(=O)N1CCC[C@H]1C(=O)N[C@@H](CO)C(=O)N[C@@H](CO)C(=O)NCC(=O)N[C@@H](C)C(=O)N1CCC[C@H]1C(=O)N1CCC[C@H]1C(=O)N1CCC[C@H]1C(=O)N[C@@H](CO)C(N)=O [Example 4] |  |  |  |  |  |  | 92.4 | 686 | 0.0528 | 0.0297 | 0.0272 | 1.63 | 0.0048 |
| CC[C@H](C)[C@H](NC(=O)[C@H](CC(C)C)NC(=O)[C@H](Cc1ccc(O)cc1)NC(=O)[C@H](CCC(=O)O)NC(=O)[C@@H](NC(=O)[C@H](Cc1ccccc1)NC(=O)[C@H](C)NC(=O)C(C)(C)NC(=O)[C@H](CCC(N)=O)NC(=O)[C@H](C)NC(=O)[C@H](CCCCNC(=O)COCCOCCNC(=O)COCCOCCNC(=O)CC[C@H](NC(=O)CCCCCCCCCCCCCCCCC(=O)O)C(=O)O)NC(=O)[C@H](CCCCN)NC(=O)[C@H](CC(=O)O)NC(=O)[C@H](CC(C)C)NC(=O)[C@H](CC(C)C)NC(=O)[C@@H](NC(=O)[C@H](CO)NC(=O)[C@H](Cc1ccc(O)cc1)NC(=O)[C@H](CC(=O)O)NC(=O)[C@H](CO)NC(=O)[C@@H](NC(=O)[C@](C)(Cc1ccccc1)NC(=O)[C@@H](NC(=O)CNC(=O)[C@H](CCC(=O)O)NC(=O)C(C)(C)NC(=O)[C@@H](N)Cc1ccc(O)cc1)[C@@H](C)O)[C@@H](C)O)[C@@H](C)CC)[C@@H](C)CC)C(=O)N[C@@H](CCC(=O)O)C(=O)NCC(=O)NCC(=O)N1CCC[C@H]1C(=O)N[C@@H](CO)C(=O)N[C@@H](CO)C(=O)NCC(N)=O [Example 301] (H-Y[Aib]EGT[αMeF]TSDYSILLDKK([AEEA-AEEA-γGlu-C18 diacid])AQ[Aib]AFIEYLIEGGPSSG-NH2) | 44.4 | 0.0273 | 0.0441 | 0.0346 | 0.875 | 0.00267 | 93.7 |  |  |  |  |  |  |
| CC[C@H](C)[C@H](NC(=O)[C@H](CC(C)C)NC(=O)[C@H](Cc1ccc(O)cc1)NC(=O)[C@H](CCC(=O)O)NC(=O)[C@@H](NC(=O)[C@H](Cc1ccccc1)NC(=O)[C@H](C)NC(=O)C(C)(C)NC(=O)[C@H](CCC(N)=O)NC(=O)[C@H](C)NC(=O)[C@H](CCCCNC(=O)COCCOCCNC(=O)COCCOCCNC(=O)CC[C@H](NC(=O)CCCCCCCCCCCCCCCCC(=O)O)C(=O)O)NC(=O)[C@H](CCCCN)NC(=O)[C@H](CC(=O)O)NC(=O)[C@H](CC(C)C)NC(=O)[C@H](CC(C)C)NC(=O)[C@@H](NC(=O)[C@H](CO)NC(=O)[C@H](Cc1ccc(O)cc1)NC(=O)[C@H](CC(=O)O)NC(=O)[C@H](CO)NC(=O)[C@@H](NC(=O)[C@H](Cc1ccccc1)NC(=O)[C@@H](NC(=O)CNC(=O)[C@H](CCC(=O)O)NC(=O)C(C)(C)NC(=O)[C@@H](N)Cc1ccc(O)cc1)[C@@H](C)O)[C@@H](C)O)[C@@H](C)CC)[C@@H](C)CC)C(=O)N[C@@H](C)C(=O)NCC(=O)NCC(=O)N1CCC[C@H]1C(=O)N[C@@H](CO)C(=O)N[C@@H](CO)C(=O)NCC(=O)N[C@@H](C)C(=O)N1CCC[C@H]1C(=O)N1CCC[C@H]1C(=O)N1CCC[C@H]1C(=O)N[C@@H](CO)C(N)=O [Example 316] (H-Y[Aib]EGTFTSDYSILLDKK([AEEA-AEEA-γGlu-C18 diacid])AQ[Aib]AFIEYLIAGGPSSGAPPPS-NH2) | 654 | 0.0418 | 0.122 | 0.024 | 0.957 | 0.00608 | 26.1 |  |  |  |  |  |  |
| CC[C@H](C)[C@H](NC(=O)[C@H](CC(C)C)NC(=O)[C@H](Cc1ccc(O)cc1)NC(=O)[C@@H](CCC(=O)O)NC(=O)[C@@H](NC(=O)[C@H](Cc1ccccc1)NC(=O)[C@H](CCC(=O)O)NC(=O)C(C)(C)NC(=O)[C@H](CCC(N)=O)NC(=O)[C@H](C)NC(=O)[C@H](CCCCNC(=O)COCCOCCNC(=O)COCCOCCNC(=O)CC[C@H](NC(=O)CCCCCCCCCCCCCCCCCCC(=O)O)C(=O)O)NC(=O)[C@H](CCCN)NC(=O)[C@H](CC(=O)O)NC(=O)[C@H](CC(C)C)NC(=O)[C@](C)(CC(C)C)NC(=O)[C@@H](NC(=O)[C@H](CO)NC(=O)[C@H](Cc1ccc(O)cc1)NC(=O)[C@H](CC(=O)O)NC(=O)[C@H](CO)NC(=O)[C@@H](NC(=O)[C@](C)(Cc1ccccc1F)NC(=O)[C@@H](NC(=O)CNC(=O)[C@H](CCC(=O)O)NC(=O)C(C)(C)NC(=O)[C@@H](N)Cc1ccc(O)cc1)[C@@H](C)O)[C@@H](C)O)[C@@H](C)CC)[C@@H](C)CC)C(=O)N[C@@H](CCC(=O)O)C(=O)NCC(=O)NCC(=O)N1CCC[C@H]1C(=O)N[C@@H](CO)C(=O)N[C@@H](CO)C(=O)NCC(=O)N[C@@H](C)C(=O)N1CCC[C@H]1C(=O)N1CCC[C@H]1C(=O)N1CCC[C@H]1C(=O)N[C@@H](CO)C(N)=O [Example 3] |  |  |  |  |  |  |  | 242 | 0.0458 | 0.0338 | 0.0411 | 2.23 |  |
